Experimental data published in patent publication US12173089B2, “Inhibition of pulmonary fibrosis with nutlin-3A and peptides” (BOARD OF REGENTS, THE UNIVERSITY OF TEXAS SYSTEM, priority 2013, dated 2024).

Legend:
BLM-treated mice = experiment: Established lung fibrosis in BLM-treated mice (CT scanning, lung function, trichrome staining, hydroxyproline, desmosine); type: in vivo; settings: IP or IV administration beginning 14 d after BLM, WT mice; results reported herein and elsewhere
Procedure: FIGS. 10A-10D. Nutlin-3a (NTL) inhibits lung fibrosis in BLM-treated mice. Mice were exposed to BLM for 14 d to induce lung fibrosis. Saline treated mice were used as fibrosis controls. After 14 d, mice exposed to BLM were injected IV with either vehicle or nutlin-3 a (10 mg/kg body weight) (Zhang F et al. Drug Metab Dispos 39: 15-21, 2011) to determine whether nutlin-3 a inhibited established lung fibrosis. On day 21 after BLM injury, mice underwent CT scanning to assess the extent of fibrosis (FIG. 10A). One representative example is shown (n=9). (FIG. 10B) Lung compliance and resistance were measured in the same mice using the Flexivent system to assess improvement in lung function after nutlin-3 a treatment (n=9). (FIG. 10C) Lung sections were subjected to trichrome staining to assess lung architecture and collagen deposition as an indication of lung fibrosis. (FIG. 10D) Whole lung homogenates were analyzed for total collagen (hydroxyproline) and desmosine content as an independent assessment of changes in ECM.
FIGS. 11A-11D. CSP-4 inhibits established lung fibrosis and improves lung function. Mice were exposed to BLM to induce pulmonary fibrosis. After 14 d, the mice were injected IV with either vehicle or 1.5 mg/kg body weight of CSP-4 or control peptide (“CP”) of scrambled sequence. On d 21 after BLM injury, mice underwent CT scanning examine CSP-4 inhibition of established lung fibrosis (FIG. 11A). One representative example is shown (n=9). (FIG. 11B): Lung volumes were measured in the same mice (n=9) using quantitative CT renditions. (FIG. 11C): Lung sections were subjected to trichrome and H&E staining (not shown) to assess collagen deposition as an indicator of lung fibrosis. (FIG. 11D) Analysis of whole lung homogenates for total hydroxyproline content.
Mice exposed to BLM (or saline in controls) for 14 d to induce lung fibrosis were injected IV with nutlin-3a (10 mg/kg body weight) (Zhang et al, supra) or a vehicle control to determine and the effect on established lung fibrosis was examined. Fibrosis was evaluated by CT scanning and lung function (compliance and resistance) were measured using the Flexivent system. Lung sections were subjected to trichrome staining and H & E staining (the latter not shown) to assess lung architecture and collagen deposition as an indication of fibrosis. Finally, whole lung homogenates were analyzed for total collagen (hydroxyproline) and desmosine content (Bhandary Y P et al, Am J Physiol: Lung Cell Mol Physiol 302:L463-73, 2012; Bhandary Y P et al, Am J Pathol, 183: 131-43 2013) as an independent assessment of the ECM. […] Oral administration of Nutlin-3a 14 days after BLM injury likewise inhibited pulmonary fibrosis in mice.
Mice were exposed to BLM to induce pulmonary fibrosis. After 14 d, the mice were injected IV with either vehicle or 1.5 mg/kg body weight of CSP-4 (SEQ ID NO: 1) or control peptide (scrambled sequence of same amino acids; CP, SEQ ID NO:5) at 1.5 mg/kg body weight or vehicle was injected IV into mice exposed to BLM 14 days earlier. One week later, mice were tested by CT scanning to evaluate lung fibrosis. Lung volume was measured in the same mice using quantitative CT renditions.

NL-fibroblasts = experiment: miR-34a and p53 in NL-fibroblasts treated with CSP; type: cell-based, human
Procedure: (§1) FIGS. 6A-6D. CSP (CSP4) augments p53 expression via induction of miR-34a in FL(IPF)-fibroblasts. (FIG. 6A) NL- and FL-fibroblasts (n=3) were treated with PBS, CSP-4 (CSP) or control peptide (CP). RNA was analyzed for miR-34a by real-time PCR. (FIG. 6B) FL-fibroblasts were treated with PBS or CSP or CP with or without miR-34a antisense (miR-34a-AS) or pre-miR-34a or control miRNA (Ctr-miR). Conditioned media (CM) were immunoblotted for PAI-1 and lysates (CL) for p53 and β-actin. (FIG. 6C) FL-fibroblasts were treated with PBS or CSP or CP in the presence or absence of miR-34a-AS, pre-miR-34a or Ctr-miR. RNA was analyzed for changes in miR-34a by real-time PCR. […] Changes in p53, uPA, PAI-1 and col-I were later assessed to identify the minimum amino acids required for the CSP effects.
(§2) NL- and FL-fibroblasts were treated with PBS, CSP or CP and RNA analyzed for miR-34a by real-time PCR. Also, FL-fibroblasts were cultured in the presence of PBS or CSP or CP with or without miR-34a antisense (miR-34a-AS) or pre-miR-34a (o control miRNA. Conditioned medium (CM) from these cultures was immunoblotted for PAI-1 and cell lysates (CL) were immunoblotted for p53. In one experiment, FL-fibroblasts were treated with PBS or CSP or CP in the presence or absence of miR-34a-AS, pre-miR-34a or control miR. RNA was analyzed for changes in miR-34a by real-time PCR. Results appear in FIGS. 6A-6C.

[1] = tested on: lung epithelial cells (LECs); settings: in vitro and in vivo; cited from earlier work
[2] = after BLM; cited from earlier work
ATII cell = settings: BLM- or cigarette smoke-induced; cited from earlier work
FL(IPF)-fibroblasts = experiment: miR-34a (real-time PCR) and p53 (immunoblot) in FL-fibroblasts treated with CSP; type: cell-based, human; settings: controls PBS, CP
Procedure: as §1, §2

Sequence	established lung fibrosis (BLM-treated mice)	p53 expression (NL-fibroblasts)	BLM-induced apoptosis of LECs [1]	subsequent pulmonary fibrosis [2]	ATII cell apoptosis (ATII cell)	ATII cell p53 expression (ATII cell)	miR-34a expression (FL(IPF)-fibroblasts)	p53 expression (FL(IPF)-fibroblasts)
DGIWKASFTTFTVTKYWFYR (Synthetic peptide - Scaffolding domain of human caveolin-1) [CSP, 20 residue peptide which is the scaffolding domain of caveolin-1]	mitigates	not in NL-fibroblasts	protected	prevented	inhibited	inhibited	significantly increased	significantly increased
NYHYLESSMTALYTLGH [PP 2, 17 residue peptide of the inventors' earlier application]	–	–	protected	prevented	–	–	–	–
